Data reported in patent US9029414B2, “Triterpenoid compounds and methods of use thereof” (Biotechnology Research Corporation, priority 2008, dated 2015).
pIC50, pKi: −log10 of the molar value.

Columns and labels:
EP3 receptor = EP3 receptor (Homo sapiens, UniProt P43115); experiment: Radioligand competition binding assay, EP3; conditions: EP3, target PGE2; compound at 10 μM in duplicate; read-out: % inhibition of control specific binding
Protocol: To determine the targets of DA compounds, the compound was assessed in binding assays for the family of prostanoid receptors. Both compounds were tested at a single concentration (10 μM) in duplicate. DA001 and DA021 inhibit the ligand binding of prostaglandin E2 receptors EP1, EP2 and EP4 and moderately to prostaglandin (PGF) to its receptor (FP), but not prostaglandin I (PGI2), thromoboxane A and prostaglandin D2 to their receptors.

human MC4 receptor = human MC4 receptor (Homo sapiens, UniProt P32245); experiment: Radioligand competition binding assay, MC4
Protocol: DA001 was evaluated against 109 receptor binding assays and 17 enzyme assays, comprising of selective, central and peripheral therapeutically-relevant targets. Radioligand competition assays were conducted whereby DA001 was tested at one concentration (10 μM) in duplicate. […] It could compete with the radioligand [^125I-NDP-alpha-melanocyte-stimulating hormone (α-MSH)] binding for MC1 and MC4 but not MC3 and MC5 nor the related family, the melanin concentrating hormone receptors (MCH1 and MCH2).
To determine the IC50 for DA001 to inhibit α-MSH binding on MC1 and MC4 receptor, the compound was further characterized by a dose-dependent study. DA001 was evaluated with 8 concentrations on MC1 and MC4 receptor binding assays.
The specific ligand binding to the receptors is defined as the difference between the total binding and the nonspecific binding determined in the presence of an excess of unlabelled ligand. The results are expressed as a percent of control specific binding [(measured specific binding/control specific binding)×100] and as a percent inhibition of control specific binding {100−[(measured specific binding/control specific binding)×100]} obtained in the presence of DA001. The IC50 values (concentration causing a half-maximal inhibition of control specific binding) and Hill coefficients (nH) were determined by non-linear regression analysis of the competition curves generated with mean replicate values using Hill equation curve fitting (Y=D+[(A−D)/(1+(C/C50)nH)], where Y=specific binding, D=minimum specific binding, A=maximum specific binding, C=compound concentration, C50=IC50, and nH=slope factor). This analysis was performed using a software developed at Cerep (Hill software) and validated by comparison with data generated by the commercial software SigmaPlot® 4.0 for Windows® (© 1997 by SPSS Inc.).

ischemic rats = experiment: MCAO (middle carotid artery occlusion) transient focal ischemia model; format: in vivo
Protocol: The MCAO (middle carotid artery occlusion model) was performed to investigate the protective effects of DA001 on the brain when the brain was exposed to transient focal ischemia (or lack of oxygen) such as during a stroke. Hemispheric brain swelling and infarct volume (the area of dead tissue caused by inadequate blood supply) was measured for test subjects treated with the compound 6 hours after ischemia and compared to that of the control group.
The MCAO (middle carotid artery occlusion model) was performed to investigate the protective effects of DA001 on the brain when exposed to transient focal ischemia (or lack of oxygen) such as during a stroke. Neurological scores, hemispheric brain swelling and infarct volume (the area of dead tissue caused by inadequate blood supply) was measured in test subjects treated with the compound 6 hours after ischemia and compared to that of the control group. DA001 effectively attenuated neurological deficits, reduced infarct volume (the area of dead tissue caused by inadequate blood supply), especially in brain slices number 3 to 5, and the extent of edema during ischemic conditions as shown in FIG. 2.

[1] = system: NGF, BDNF, NT-3 and NT-4 expression in cortical neurons; experiment: Neurotrophin gene expression (real-time PCR) in cortical neurons following NMDA treatment; format: cell-based; conditions: 24 hrs pre-treatment, then NMDA 20 μM 20 min; vs DMSO+NMDA
Protocol: Cortical neurons were incubated with DA001 or the DMSO control for 24 hrs, followed by treatment with NMDA (20 μM) or water for 20 min. Gene expression was normalized against the house-keeping gene, hypoxanthine phosphoribosyltransferase 1 (HPRT1) and glyceraldehyde 3-phosphate dehydrogenase (GAPDH) and compared to the control (DMSO) with NMDA treatment. Relative changes in gene expression induced by DA001+NMDA was compared with DMSO+NMDA.
Cortical neurons of 11 DIV-12 DIV were pre-incubated with DA001 or DMSO for 24 hours. Cells were washed in Locke's medium without magnesium for 15 min, followed by the treatment of NMDA (20 μM) or water for 20 min. Neurons were incubated with normal growth medium and total RNA were extracted at different time intervals after or without NMDA treatment. Total RNA was extracted using RNeasy Mini kit (Qiagen) according to the manufacturer's protocol, and was reverse-transcribed into single-stranded cDNA with SuperScript II Reverse Transcriptase (Invitrogen) and oligo-dT primers. Real-time Quantitative PCR was performed using Power SYBR Green PCR Master Mix (Applied Biosystems) on the Mx3000P Real-Time PCR System (Stratagene). Thermal cycling was initiated with a 10-min denaturation step at 95° C., followed by 40 cycles of 95° C. for 30 sec, 60° C. for 1 min and 72° C. for 30 sec. The final product was subjected to a Meltcurve detection at the end of the reaction. Regulation of the gene expression was normalized against home gene, hypoxanthine phosphoribosyltransferase 1 (HPRT1) and glyceraldehyde 3-phosphate dehydrogenase (GAPDH). Real-time PCR primers are as follows.
Cortical neurons were pre-treated with DA001 after which the cells were subjected to NMDA insult. The expression of neurotrophins was measured at three different time intervals. DA001 induced NGF, BDNF and NT-3 expression but not NT-4 under the same conditions. FIG. 3 illustrates that cortical neurons were incubated with DA001 or the DMSO control for 24 hrs, followed by treatment with NMDA (20 μM) or water for 20 min. […]

Chain of human MC4 receptor (P32245 whole entry): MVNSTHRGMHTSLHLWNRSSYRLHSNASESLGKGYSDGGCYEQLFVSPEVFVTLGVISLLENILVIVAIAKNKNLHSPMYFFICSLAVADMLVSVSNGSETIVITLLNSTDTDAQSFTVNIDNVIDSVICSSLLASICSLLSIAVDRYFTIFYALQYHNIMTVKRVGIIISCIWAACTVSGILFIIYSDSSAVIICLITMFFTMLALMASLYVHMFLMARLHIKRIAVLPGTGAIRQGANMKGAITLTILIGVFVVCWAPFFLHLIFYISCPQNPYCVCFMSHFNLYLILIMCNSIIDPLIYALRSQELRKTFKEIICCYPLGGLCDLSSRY
Chain of EP3 receptor (P43115 whole entry): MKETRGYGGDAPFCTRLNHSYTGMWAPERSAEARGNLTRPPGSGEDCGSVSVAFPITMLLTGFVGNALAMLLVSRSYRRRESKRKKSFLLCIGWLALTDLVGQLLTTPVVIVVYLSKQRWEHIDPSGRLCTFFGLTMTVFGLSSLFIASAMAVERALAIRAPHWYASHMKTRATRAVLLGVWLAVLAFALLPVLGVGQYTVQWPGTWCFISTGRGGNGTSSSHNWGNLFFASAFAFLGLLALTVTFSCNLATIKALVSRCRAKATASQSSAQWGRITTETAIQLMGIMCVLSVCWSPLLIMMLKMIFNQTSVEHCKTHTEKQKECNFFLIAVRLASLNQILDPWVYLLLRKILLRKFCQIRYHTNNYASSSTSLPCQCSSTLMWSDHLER

| Compound | inhibition at 10 µM (EP3 receptor) | pKi (human MC4 receptor) | pIC50 (human MC4 receptor; 8 concentrations) | nH (human MC4 receptor; Hill coefficient) | total infarction of MCAO rats (ischemic rats; 12.6 mg/kg and 25.2 mg/kg orally 6 h post-ischemia) | extent of edema (ischemic rats; 42 mg/kg) | neurological scores of ischemic rats (ischemic rats; 12.6 and 25.2 mg/kg orally 6 h post-ischemia) | BDNF expression [1] | NGF expression [1] | NT-3 expression [1] |
| --- | --- | --- | --- | --- | --- | --- | --- | --- | --- | --- |
| C=C(C)[C@@H]1CC[C@]2(/C=N/O)CC[C@]3(C)C(CCC4[C@@]5(C)CCC(=O)[C@@](C)(CO)[C@@H]5CC[C@]43C)C12 (stereo partly shown) [DA021] | -3% |  |  |  |  |  |  |  |  |  |
| C=C(C)[C@@H]1CC[C@]2(C(=O)O)CC[C@]3(C)C(CC[C@@H]4[C@@]5(C)CC[C@H](O[C@@H]6OC[C@H](O)[C@H](O)[C@H]6O[C@@H]6O[C@@H](C)[C@H](O)[C@@H](O)[C@H]6O)[C@@](C)(CO)[C@@H]5CC[C@]43C)[C@@H]12 (stereo partly drawn) [DA001, 3-O-[α-L-rhamnopyranosyl-(1→2)-α-L-arabinopyranosyl]-3,23-dihydroxy-20(29)-lupen-28-oic acid] |  | 5.20 | 5.17 | 1.3 | significantly decreased | reduced the extent of edema | significantly improved | induced | induced | induced |
